{"source": "patent US20210113650A1", "about": "“NANOMOLECULES FOR THE TREATMENT OF INFLAMMATORY BOWEL DISEASES” (Northwestern University, priority 2018, published 2021)", "assay_type_in_all_cases": "in vivo, mouse", "key": {"[1]": {"system": "SAMP1/YitFcsJ mice (Crohn's mice)", "experiment": "Inflammatory intestinal lesion size after direct injection into inflamed intestinal lesions", "settings": "5 weeks post-injection, pre- versus post-injection, compared to AIF-PAC and saline injected control animals", "protocol": "(§1) In order to treat inflammatory lesions that have formed in the intestinal tracts, the following was performed:\nMice (10 weeks of age, female) were brought to the operating room where they were weighed, the abdomen shaved to remove hair, and given Buprenorphine (0.05 mg/kg) administered subcutaneously. At the time of surgery, anesthesia was induced with isoflurane (2%) with 02 and the mice were prepped with providine-iodine three times prior to initiating the operation. All mice received a 100 mg/kg dose of IP piperacillin/tazobactam IP followed by a midline abdominal incision (1.0-1.5 cm) made in the linea albea to gain access to the peritoneum. The intestines were then identified in the peritoneal cavity. Following intestinal exposure and identification of intestinal lesions, the anti-inflammatory peptide amphiphiles, [AIF-PA1 (treatment; 2 wt/%) or AIF-PAC (control; 2 wt/%)] or saline (control) were independently injected (20-40 μl) into multiple lesions of the several SAMP1/YitFcsJ mice. Following the surgical procedure, organs were relocated to their original anatomical positions. The abdomen was closed in 2 layers (muscle and skin) with 3-0 PDS suture. […] Tissue samples were subsequently quantified, and the results are depicted in FIGS. 1-3."}, "[2]": {"system": "SAMP1/YitFcsJ mice (Crohn's mice)", "experiment": "Cell/marker and cytokine expression in intestinal tissue after systemic (tail vein) injection", "settings": "5 weeks, compared to AIFC-PA6/LDT and untreated control animals", "protocol": "as §1\nMice (10 weeks of age, female; n=4-7 per group) were brought to the animal holding/surgical room where they were weighed. Animals were placed in a restrainer and independently injected with the aforementioned anti-inflammatory peptide amphiphiles, [AIF-PA1/LDT (treatment; 1 mM) or AIFC-PA6/LDT (control; 1 mM] or untreated/no treatment control group. Approximately 100 μl of solution was injected into the tail vein of the mice. Animals were sacrificed at the 15 weeks of age. Animals were euthanized 5 weeks post-surgery and intestinal tissue was explanted, sectioned and stained with relevant inflammation based antibodies and data was quantified. Gross tissue samples were examined for pathology. Quantified data and results are summarized in FIGS. 4-6."}, "[3]": {"system": "SAMP1/YitFcsJ mice (Crohn's mice)", "experiment": "Cell/marker and cytokine expression in intestinal tissue after direct injection into inflamed intestinal lesions", "settings": "5 weeks post-surgery, compared to AIF-PAC and saline injected control animals", "protocol": "as §1\nMice (10 weeks of age, female) were brought to the operating room where they were weighed, the abdomen shaved to remove hair, and given Buprenorphine (0.05 mg/kg) administered subcutaneously. At the time of surgery, anesthesia was induced with isoflurane (2%) with 02 and the mice were prepped with providine-iodine three times prior to initiating the operation. All mice received a 100 mg/kg dose of IP piperacillin/tazobactam IP followed by a midline abdominal incision (1.0-1.5 cm) made in the linea albea to gain access to the peritoneum. The intestines were then identified in the peritoneal cavity. Following intestinal exposure and identification of intestinal lesions, the anti-inflammatory peptide amphiphiles, [AIF-PA1 (treatment; 2 wt/%) or AIF-PAC (control; 2 wt/%)] or saline (control) were independently injected (20-40 μl) into multiple lesions of the several SAMP1/YitFcsJ mice. Following the surgical procedure, organs were relocated to their original anatomical positions. The abdomen was closed in 2 layers (muscle and skin) with 3-0 PDS suture. After recovery, they were placed back into cages with non-edible bedding and provided ad lib water and liquid diet for the first 7 post-operative days and then returned to ad lib chow. Animals were sacrificed at the 15 weeks of age. Animals were euthanized 5 weeks post-surgery and intestinal tissue was explanted, sectioned and stained with relevant inflammation based antibodies. Tissue samples were subsequently quantified, and the results are depicted in FIGS. 1-3."}}, "note": "*: point of attachment. Palmitoyl = CCCCCCCCCCCCCCCC(=O)*", "data": [{"substance": "C16-VVVAAAEEEMQMKKVLDS (Palmitoyl-VVVAAAEEEMQMKKVLDS-NH2; SMILES CCCCCCCCCCCCCCCC(=O)N[C@H](C(=O)N[C@H](C(=O)N[C@H](C(=O)N[C@@H](C)C(=O)N[C@@H](C)C(=O)N[C@@H](C)C(=O)N[C@@H](CCC(=O)O)C(=O)N[C@@H](CCC(=O)O)C(=O)N[C@@H](CCC(=O)O)C(=O)N[C@@H](CCSC)C(=O)N[C@@H](CCC(N)=O)C(=O)N[C@@H](CCSC)C(=O)N[C@@H](CCCCN)C(=O)N[C@@H](CCCCN)C(=O)N[C@H](C(=O)N[C@@H](CC(C)C)C(=O)N[C@@H](CC(=O)O)C(=O)N[C@@H](CO)C(N)=O)C(C)C)C(C)C)C(C)C)C(C)C) [AIF-PA1]", "values": [{"measurement": "change in intestinal lesion size", "setting": "[1]", "result": "statistically significant decrease"}, {"measurement": "IFNγ expression", "setting": "[2]", "result": "statistically significant decrease"}, {"measurement": "IL-1β expression", "setting": "[2]", "result": "statistically significant decrease"}, {"measurement": "IL-13 expression", "setting": "[2]", "result": "statistically significant decrease"}, {"measurement": "TNFα expression", "setting": "[2]", "result": "statistically significant decrease"}, {"measurement": "CD68 (macrophages) expression", "setting": "[3]; 2 wt/%, 20-40 μl", "result": "statistically significant decrease"}, {"measurement": "MAdCAM1 expression", "setting": "[3]; 2 wt/%, 20-40 μl", "result": "statistically significant decrease"}, {"measurement": "anti-inflammatory cytokine IL-10 expression", "setting": "[3]; 2 wt/%, 20-40 μl", "result": "concomitant increase"}, {"measurement": "mast cell tryptase (mast cells) expression", "setting": "[3]; 2 wt/%, 20-40 μl", "result": "statistically significant decrease"}, {"measurement": "IFNγ expression", "setting": "[3]", "result": "statistically significant decrease"}, {"measurement": "IL-1β expression", "setting": "[3]", "result": "statistically significant decrease"}, {"measurement": "IL-13 expression", "setting": "[3]", "result": "statistically significant decrease"}, {"measurement": "TNFα expression", "setting": "[3]", "result": "statistically significant decrease"}]}]}
